Reference: PubChem BioAssay AID1996
Values after ≈ are worked out from the molar mass of the structure shown.

settings: buffer; pH 7.4; 200.0 µM

SMILES | solubility kinetic [µg/mL]
Cc1[nH]c(C(=O)O)c(C#N)c1C(=O)c1ccccc1 | > 38.1
CC(C)[C@H](NC(=O)c1ccc(Cl)cc1)C(=O)OCC(=O)N1CCN(c2ccccc2)CC1 | 52.5 (≈ 115 µM)
Cc1cc(NC(=O)CSCC(=O)OCc2nnc(-c3ccc(F)cc3)o2)no1 | > 61
Cc1nc2ccccc2c(=O)n1Cc1ccc([N+](=O)[O-])cc1 | > 44.3
CC1CN=C(NC(=O)c2cccc([N+](=O)[O-])c2)S1.Cl (centres undefined) | 12.5
N/C(Cc1ccc([N+](=O)[O-])cc1)=N\OC(=O)C1CCCCC1 | 41.2 (≈ 135 µM)
COC(=O)c1ccsc1NC(=O)CS(=O)(=O)c1ccccc1 | > 50.9
CC(=O)Nc1c2c(nn1-c1cccc(Cl)c1)CS(=O)(=O)C2 | > 48.9
COc1cc(C(=O)Nc2cc(OC)c(OC)c(OC)c2)ccc1OCc1c(C)noc1C | 2.9 (≈ 6.55 µM)
O=S(=O)(c1ccc(Cl)c2ccccc12)N1CCCC1 | < 0.6
COc1ccc(OCCCn2ccnc2)cc1.Cl | 36
O=C(/C=C/Sc1ccc(C(F)(F)F)cn1)c1ccccc1 | < 0.7
CC(=O)c1c(C)n(-c2ccccc2Br)c2ccc(O)cc12 | 1 (≈ 2.91 µM)
Cc1ccc(CN2CCN(C(=O)c3cccc4ccccc34)CC2)cc1.O=C(O)C(=O)O | 59.6
Cc1nc2oc3ccc(F)cc3c(=O)c2cc1C(=O)O | 40.8 (≈ 149 µM)
CCC(=O)N1CCN=C1SCc1cc(C)ccc1C | 35.6 (≈ 129 µM)
CCCCCCC(=O)OCC(=O)c1ccc2c(c1)NC(=O)CO2 | 10.8 (≈ 33.8 µM)
CCOc1ccc(N2C(=O)CSC2=S)cc1 | < 0.5
Cc1ccc(OCC(=O)Nc2ccc3oc(=O)ccc3c2)cc1 | 1.7 (≈ 5.5 µM)
CCN(CC)CCNS(=O)(=O)c1ccc(/C=C/C(=O)O)cc1 | 41 (≈ 126 µM)
Cc1cc(NC(=O)COC(=O)C2CC(=O)N(c3ccccc3)C2)no1 (centres undefined) | > 51.5
CC1CCCCC1NC(=O)COc1ncnc2sccc12 (centres undefined) | > 45.8
Cc1ccc(C(=O)N2CCOCC2)c(F)c1F | 33.9 (≈ 141 µM)
CC(C)c1ccc(NC(=O)CCC(=O)NCc2ccco2)cc1 | 5.1 (≈ 16.2 µM)
O=[N+]([O-])c1cccc2c(N3CCOCC3)ccnc12 | > 38.9
COc1ccc(CNC(=O)c2ccc[nH]2)cc1Cl | > 39.7

More lines, now with the values ahead:

solubility kinetic [µg/mL] | SMILES
> 40.7 | CCOC(=O)c1cnc(SC)nc1NCCOC
44.9 | CNCc1c(OCc2ccccc2)ccc2ccccc12.Cl
> 42.5 | N#CC1(NC(=O)CN2CCc3ccccc3C2)CCCC1
42.5 (≈ 130 µM) | COC(=O)c1sccc1NC(=S)N1CCC(C(N)=O)CC1
12.9 (≈ 34.6 µM) | Nc1ccccc1C(=O)NCCCN1CCN(c2cccc(Cl)c2)CC1
> 59.5 | COc1cc(Cl)c(C)cc1NC(=O)CSc1nnc(CN2CCCC2)o1
< 0.8 | Cc1ccc(/C=C2\SC(=S)N(C3CCS(=O)(=O)C3)C2=O)cc1 (centres undefined)
41.3 (≈ 129 µM) | CCN(Cc1cc(=O)[nH]c2ccccc12)C(=O)c1ccc(C)cc1
40.4 (≈ 123 µM) | COc1cc2c(cc1OC)/C(=C/C(=O)c1ccccc1F)NCC2
7.9 (≈ 23.3 µM) | Cc1ccc(S(=O)(=O)C(C#N)=C2N(C)c3ccccc3N2C)cc1
43.2 (≈ 141 µM) | CCNC(C(=O)c1c[nH]c2c(CC)cccc12)c1ccccc1 (centres undefined)
> 51.3 | CC(C)OP(=O)(OC(C)C)C(NC(=O)c1ccccc1)C(N)=O (centres undefined)
> 54.2 | N#Cc1ccccc1S(=O)(=O)N1CCN(C(=O)C2CCCCC2)CC1
> 44.5 | O=C(OCC(=O)N1CCCCCC1)c1ccc(Cl)nc1
0.5 (≈ 1.37 µM) | Cc1cc(C(=O)Nc2cccc(NC(=O)c3ccco3)c2)ccc1[N+](=O)[O-]
> 29.6 | CCCn1c(N)c(CC)c(=O)[nH]c1=O
0.8 (≈ 2.51 µM) | O=C(Nc1nc(-c2ccc(F)c(F)c2)cs1)c1cnccn1

solubility kinetic [µg/mL] | SMILES
> 61.6 | COC(=O)C(Cc1ccccc1)NC(=O)CCC(=O)NC(C)CCc1ccccc1 (centres undefined)
> 47 | Cc1ccc(-c2csc3ncn(CC(N)=O)c(=O)c23)cc1C
14.6 (≈ 49.8 µM) | Cc1ccc(NS(=O)(=O)c2cccc([N+](=O)[O-])c2)nc1
7 (≈ 26.6 µM) | O=S(=O)(Cc1ccccc1)N(O)c1ccccc1
2.9 (≈ 8.93 µM) | O=C(Cc1cccc(Cl)c1)Nc1ccc(Br)cc1
> 44.4 | Nc1nc(NCCO)nc(N2CCCCCC2)c1[N+](=O)[O-]
45.9 (≈ 129 µM) | CC(Oc1ccc(Br)cc1Cl)C(=O)Nc1ccncc1 (centres undefined)
> 40.5 | CC(C)N1CC(COc2ccccc2Cl)OC1=O (centres undefined)
> 39.6 | CC1=NCCN1CCNC(=O)Nc1ccc(F)cc1
47.3 (≈ 135 µM) | CC(C)NC(=O)c1ccc(CN2CCC(Cc3ccccc3)CC2)cc1
> 36.5 | Cc1cccc(NC2=CC(=O)CC(C)(C)C2)c1C
36.5 (≈ 144 µM) | COc1ccc(Nc2nc3ccccc3n2C)cc1
> 52.6 | COc1ccc(NC(=O)NS(=O)(=O)c2ccc(C)cc2)cc1OC
> 45.9 | O=C(NC1CCCC(C(F)(F)F)C1)c1ccc([N+](=O)[O-])o1 (centres undefined)
22.4 (≈ 60.3 µM) | CN(Cc1ccco1)C(=O)CCc1nc2sc3c(c2c(=O)[nH]1)CCCC3
> 53.6 | Cc1noc(C)c1COc1ccc(C(=O)N2CCC(C(N)=O)CC2)cc1
